Assay in all cases: Transient transfection (transactivation) assay in CV-1 cells, GAL4-PPAR chimera, luciferase reporter
Common to all, as to format: cell-based

The target of one test is T1, PPAR delta (Homo sapiens, UniProt Q03181).
T1 construct: expressed in transfected cells; host or cells: CV-1 cells
T1 sequence (Q03181 211-439 limits assumed): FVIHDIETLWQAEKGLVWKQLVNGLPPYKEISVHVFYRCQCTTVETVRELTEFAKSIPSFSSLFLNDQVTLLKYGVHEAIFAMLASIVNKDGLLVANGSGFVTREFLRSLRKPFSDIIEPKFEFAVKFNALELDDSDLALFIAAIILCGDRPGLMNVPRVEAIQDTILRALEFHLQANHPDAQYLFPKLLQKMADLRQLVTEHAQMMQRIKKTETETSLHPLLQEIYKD

A further test addresses T2, PPAR gamma (Homo sapiens, UniProt P37231).
T2 construct: expressed in transfected cells; host or cells: CV-1 cells
T2 sequence (P37231 238-503 limits assumed): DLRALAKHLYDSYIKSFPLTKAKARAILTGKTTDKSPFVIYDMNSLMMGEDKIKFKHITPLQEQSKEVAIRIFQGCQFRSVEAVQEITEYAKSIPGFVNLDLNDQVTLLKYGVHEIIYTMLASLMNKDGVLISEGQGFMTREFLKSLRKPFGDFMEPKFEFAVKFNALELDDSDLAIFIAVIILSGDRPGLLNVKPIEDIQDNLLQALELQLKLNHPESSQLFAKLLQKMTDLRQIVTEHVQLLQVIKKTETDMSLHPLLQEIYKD

The target of the next test is T3, PPAR alpha (Homo sapiens, UniProt Q07869).
T3 construct: expressed in transfected cells; host or cells: CV-1 cells
T3 sequence (Q07869 239-466 limits assumed): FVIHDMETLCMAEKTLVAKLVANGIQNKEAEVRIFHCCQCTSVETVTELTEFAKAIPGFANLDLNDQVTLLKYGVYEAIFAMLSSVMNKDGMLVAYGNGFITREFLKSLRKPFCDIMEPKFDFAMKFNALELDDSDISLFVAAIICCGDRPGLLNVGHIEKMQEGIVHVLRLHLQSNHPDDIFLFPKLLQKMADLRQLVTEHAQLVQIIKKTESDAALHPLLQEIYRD
In a few lines: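 GAL4 DNA-binding domain fused to PPAR ligand binding domain, co-transfected into CV-1 cells with a luciferase reporter carrying four or five GAL4 sites. Replated cells in phenol-red free DME with 5% delipidated calf serum were treated with compound or 1% DMSO for 20-24 hours; luciferase read for EC50 and efficacy.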

pEC50: −log10 of the molar value. Some results are limits rather than exact numbers.

From the text for PPAR gamma: Compounds may be screened for functional potency in transient transfection assays in CV-1 cells or other cell types for their ability to activate the PPAR subtypes (transactivation assay). A previously established chimeric receptor system was utilized to allow comparison of the relative transcriptional activity of the receptor subtypes on the same synthetic response element and to prevent endogenous receptor activation from complicating the interpretation of results. […] The ligand binding domains for murine and human PPAR-alpha, PPAR-gamma, and PPAR-delta are each fused to the yeast transcription factor GAL4 DNA binding domain. CV-1 cells were transiently transfected with expression vectors for the respective PPAR chimera along with a reporter construct containing four or five copies of the GAL4 DNA binding site driving expression of luciferase. After 8-16 h, the cells are replated into multi-well assay plates and the media is exchanged to phenol-red free DME medium supplemented with 5% delipidated calf serum. 4 hours after replating, cells were treated with either compounds or 1% DMSO for 20-24 hours. Luciferase activity was then assayed with Britelite (Perkin Elmer) following the manufacturer's protocol and measured with either the Perkin Elmer Viewlux or Molecular Devices Acquest Xsee, for example, Kliewer, S. A., et. al. Cell 1995, 83, 813-819). Rosiglitazone is used as a positive control in the hPPAR-γ assay. Wy-14643 and GW7647 is used as a positive control in the hPPAR-α assay. GW501516 is used as the positive control in the hPPAR-δ assay.

By pEC50 is commonly meant the negative decadic logarithm of the EC50, by convention in mol/L. With `CCC1CN(S(=O)(=O)c2ccc(C)c(CC(=O)O)c2)CCN1c1ccc(C(F)(F)F)cn1` (stereo not drawn) [Example 94, {5-[3-Ethyl-4-(5-trifluoromethyl-pyridin-2-yl)-piperazine-1-sulfonyl]-2-methyl-phenyl}-acetic acid], the pEC50 on PPAR delta was above 5.30; on PPAR gamma, above 5.30; on PPAR alpha, 4.00 to 5.30.

Consider `Cc1ccc(S(=O)(=O)N2CCN(c3ccc(C(F)(F)F)nc3)CC2)cc1CC(=O)O` [Example 95, {2-Methyl-5-[4-(6-trifluoromethyl-pyridin-3-yl)-piperazine-1-sulfonyl]-phenyl}-acetic acid], for which the negative-log EC50 (pEC50) at PPAR delta is above 5.30; at PPAR gamma, below 4.00; at PPAR alpha it was below 4.00.

On to `O=C(O)Cc1cccc(S(=O)(=O)N2CCN(c3ccc(C(F)(F)F)cc3Br)CC2)c1` [Example 96], for which the pEC50 is above 5.30 at PPAR delta, below 4.00 at PPAR gamma and above 5.30 on PPAR alpha.

`Cc1ccc(S(=O)(=O)N2CCN(c3ccc(C(F)(F)F)cc3Br)CC2)cc1CC(=O)O` [Example 97, {5-[4-(2-Bromo-4-trifluoromethyl-phenyl)-piperazine-1-sulfonyl]-2-methyl-phenyl-}acetic acid]: the pEC50 at PPAR delta is above 5.30; at PPAR gamma, below 4.00; on PPAR alpha it was above 5.30.

Regarding `CCC1CN(c2ccc(C(F)(F)F)c(Cl)c2)CCN1S(=O)(=O)c1ccc(C)c(CC(=O)O)c1` (stereo not drawn) [Example 98, {5-[2-Ethyl-4-(3-chloro-4-trifluoromethyl-phenyl)-piperazine-1-sulfonyl]-2-methyl-phenyl}-acetic acid], the pEC50 was above 5.30 on PPAR delta, below 4.00 on PPAR gamma and above 5.30 at PPAR alpha.

For the compound `Cc1ccc(S(=O)(=O)N2CCN(c3ccc(OC(F)(F)F)cc3)[C@@H](C)C2)cc1CC(=O)O` [Example 99], the pEC50 at PPAR delta is above 5.30; at PPAR gamma, 4.00 to 5.30; at PPAR alpha, above 5.30.

For the compound `Cc1ccc(S(=O)(=O)N2[C@H](C)CN(c3ccc(OC(F)(F)F)cc3)C[C@@H]2C)cc1CC(=O)O` [Example 100, {5-[2,6-Dimethyl-4-(4-trifluoromethoxy-phenyl)-piperazine-1-sulfonyl]-2-methyl-phenyl}-acetic acid], the pEC50 on PPAR delta was above 5.30; at PPAR gamma, 4.00 to 5.30; on PPAR alpha, 4.00 to 5.30.

`Cc1ccc(S(=O)(=O)N2CCN(c3ccc(Cl)c(Cl)c3)C[C@@H]2C)cc1CC(=O)O` [Example 101, {5-[4-(3,4-Dichloro-phenyl)-2-(S)-methyl-piperazine-1-sulfonyl]-2-methyl-phenyl}-acetic acid]: the pEC50 is above 5.30 on PPAR delta, 4.00 to 5.30 on PPAR gamma and 4.00 to 5.30 at PPAR alpha.

Regarding `Cc1ccc(S(=O)(=O)N2CCN(c3ccc(Cl)c(Cl)c3)[C@@H](C)C2)cc1CC(=O)O` [Example 102, {5-[4-(3,4-Dichloro-phenyl)-3-(S)-methyl-piperazine-1-sulfonyl]-2-methyl-phenyl}-acetic acid], the figures for the pEC50 on PPAR delta, at PPAR gamma and on PPAR alpha were above 5.30, 4.00 to 5.30 and 4.00 to 5.30, respectively.

With `Cc1ccc(S(=O)(=O)N2[C@@H](C)CN(c3ccc(C(F)(F)F)cn3)C[C@@H]2C)cc1CC(=O)O` [Example 103, {5-[2,6-(S,S)-Dimethyl-4-(5-trifluoromethyl-pyridin-2-yl)-piperazine-1-sulfonyl]-2-methyl-phenyl}-acetic acid], the pEC50 at PPAR delta is above 5.30; at PPAR gamma it was 4.00 to 5.30; at PPAR alpha it was 4.00 to 5.30.

As to `Cc1ccc(S(=O)(=O)N2[C@H](C)CN(c3ccc(C(F)(F)F)c(Cl)c3)C[C@@H]2C)cc1CC(=O)O` [Example 107, {5-[4-(3-Chloro-4-trifluoromethyl-phenyl)-2,6-dimethyl-piperazine-1-sulfonyl]-2-methyl-phenyl}-acetic acid], the values for the pEC50 on PPAR delta, on PPAR gamma and at PPAR alpha were above 5.30, below 4.00 and below 4.00, respectively.

In the case of `Cc1ccc(S(=O)(=O)N2C[C@H](C)N(c3ccc(C(F)(F)F)cn3)[C@@H](C)C2)cc1CC(=O)O` [Example 108, {5-[3,5-(S,S)-Dimethyl-4-(5-trifluoromethyl-pyridin-2-yl)-piperazine-1-sulfonyl]-2-methyl-phenyl}-acetic acid], the pEC50 on PPAR delta was above 5.30; at PPAR gamma, 4.00 to 5.30; at PPAR alpha, 4.00 to 5.30.

Turning to `C[C@@H]1CN(c2ccc(OC(F)(F)F)cc2)C[C@H](C)N1S(=O)(=O)c1cccc(CC(=O)O)c1` [Example 109, {3-[2,6-Dimethyl-4-(4-trifluoromethoxy-phenyl)-piperazine-1-sulfonyl]-phenyl}-acetic acid], the figures for the pEC50 at PPAR delta, on PPAR gamma and at PPAR alpha were above 5.30, below 4.00 and 4.00 to 5.30, respectively.

Take `Cc1cc(CC(=O)O)cc(S(=O)(=O)N2[C@H](C)CN(c3ccc(OC(F)(F)F)cc3)C[C@@H]2C)c1` [Example 110, {3-[2,6-Dimethyl-4-(4-trifluoromethoxy-phenyl)-piperazine-1-sulfonyl]-5-methyl-phenyl}-acetic acid]: the pEC50 at PPAR delta was above 5.30; on PPAR gamma it was 4.00 to 5.30; at PPAR alpha, 4.00 to 5.30.

Take `C[C@@H]1CN(c2ccc(OC(F)(F)F)cc2)C[C@H](C)N1S(=O)(=O)c1cc(CC(=O)O)cc(C(F)(F)F)c1` [Example 111, {3-[2,6-Dimethyl-4-(4-trifluoromethoxy-phenyl)-piperazine-1-sulfonyl]-5-trifluoromethyl-phenyl}-acetic acid]: the negative-log EC50 (pEC50) was above 5.30 at PPAR delta, 4.00 to 5.30 on PPAR gamma and 4.00 to 5.30 on PPAR alpha.

For the compound `Cc1cc(CC(=O)O)cc(S(=O)(=O)N2[C@H](C)CN(c3ccc(C(F)(F)F)c(Cl)c3)C[C@@H]2C)c1` [Example 112, {3-[4-(3-Chloro-4-trifluoromethyl-phenyl)-2,6-dimethyl-piperazine-1-sulfonyl]-5-methyl-phenyl}-acetic acid], the pEC50 on PPAR delta was above 5.30; on PPAR gamma, below 4.00; at PPAR alpha, 4.00 to 5.30.

Consider `C[C@@H]1CN(c2ccc(C(F)(F)F)c(F)c2)C[C@H](C)N1S(=O)(=O)c1cccc(CC(=O)O)c1` [Example 113, {3-[4-(3-Fluoro-4-trifluoromethyl-phenyl)-2,6-dimethyl-piperazine-1-sulfonyl]-phenyl}-acetic acid], for which the pEC50 is above 5.30 on PPAR delta, below 4.00 on PPAR gamma and 4.00 to 5.30 at PPAR alpha.

As for `C[C@@H]1CN(c2ccc(C(F)(F)F)c(Cl)c2)C[C@H](C)N1S(=O)(=O)c1cccc(CC(=O)O)c1` [Example 114, {3-[4-(3-Chloro-4-trifluoromethyl-phenyl)-2,6-dimethyl-piperazine-1-sulfonyl]-phenyl}-acetic acid], the pEC50 at PPAR delta is above 5.30; on PPAR gamma it was below 4.00; at PPAR alpha, 4.00 to 5.30.

Turning to `O=C(O)Cc1cccc(S(=O)(=O)N2CCN(c3ccc(Cl)c(Cl)c3)CC2)c1` [Example 115, {3-[4-(3,4-Dichloro-phenyl)-piperazine-1-sulfonyl]-phenyl}-acetic acid], the pEC50 on PPAR delta was above 5.30; on PPAR gamma, 4.00 to 5.30; on PPAR alpha, 4.00 to 5.30.

With `O=C(O)Cc1cccc(S(=O)(=O)N2CCN(c3ccc(Cl)cc3)CC2)c1` [Example 116, {3-[4-(4-Chloro-phenyl)-piperazine-1-sulfonyl]-phenyl}-acetic acid], the figures for the pEC50 on PPAR delta, on PPAR gamma and at PPAR alpha were above 5.30, 4.00 to 5.30 and below 4.00, respectively.

These data come from patent US20050234046A1 (Kalypsys, Inc., priority 2004, published 2005).
